The supplement of paper PMC10307832

What was measured:
Assay in all cases: relative viability (nuclei count vs DMSO), 5 days (fraction); higher = more cells survive
[1] = compound: CS(=O)(=O)c1ccc(C(=O)Nc2ccc(Cl)c(-c3ccccn3)c2)c(Cl)c1 [Vismodegib] + CC1(C)CCC(c2ccc(Cl)cc2)=C(CN2CCN(c3ccc(C(=O)NS(=O)(=O)c4ccc(N[C@H](CCN5CCOCC5)CSc5ccccc5)c(S(=O)(=O)C(F)(F)F)c4)cc3)CC2)C1 [Navitoclax] (partner 0.5 µM)
In short: (§1)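 Lung cancer cell lines in 1536-well plates were dosed by pin tool the day after seeding, either with one drug alone or with a fixed anchor-drug dose plus five library-drug doses (not always all listed) in √10 steps. After 5 days, cells were fixed and their nuclei stained in one step (final 0.05% Triton X-100, 1% formaldehyde, 1 ug/ml Hoechst), then counted on 4× images. Relative viability is the nuclei count in treated wells divided by that in vehicle wells. Values are medians of duplicate plates.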

[2] = compound: CS(=O)(=O)c1ccc(C(=O)Nc2ccc(Cl)c(-c3ccccn3)c2)c(Cl)c1 [Vismodegib] + CC(=O)c1c(C)c2cnc(Nc3ccc(N4CCNCC4)cn3)nc2n(C2CCCC2)c1=O [Palbociclib] (partner 0.5 µM)
In short: as §1

[3] = compound: N#CC[C@H](C1CCCC1)n1cc(-c2ncnc3[nH]ccc23)cn1 [Ruxolitinib] + Nc1nc2[nH]cc(CCc3ccc(C(=O)N[C@@H](CCC(=O)O)C(=O)O)cc3)c2c(=O)[nH]1 [Pemetrexed] (partner 0.2 µM)
In short: as §1

[4] = compound: CS(=O)(=O)c1ccc(-c2cnc(N)c(C(=O)Nc3ccccc3)n2)cc1 [VE-821] + CC1(C)CCC(c2ccc(Cl)cc2)=C(CN2CCN(c3ccc(C(=O)NS(=O)(=O)c4ccc(N[C@H](CCN5CCOCC5)CSc5ccccc5)c(S(=O)(=O)C(F)(F)F)c4)cc3)CC2)C1 [Navitoclax] (partner 0.5 µM)
In short: as §1

Work on NCI-H1755 yielded a relative viability ([1]; first compound 0.08 µM) of 0.961, a relative viability ([1]; first compound 0.253 µM) of 0.957 and a relative viability ([1]; first compound 0.8 µM) of 1.04. It also gave a relative viability ([1]; first compound 2.53 µM) of 0.934, a relative viability ([1]; first compound 8 µM) of 0.985 and a relative viability ([2]; first compound 0.08 µM) of 0.49. The relative viability ([2]; first compound 0.253 µM) was 0.456, the relative viability ([2]; first compound 0.8 µM) was 0.409 and the relative viability ([2]; first compound 2.53 µM) was 0.368. The relative viability ([2]; first compound 8 µM) was 0.502, the relative viability ([3]; first compound 0.08 µM) was 0.459 and the relative viability ([3]; first compound 0.253 µM) was 0.448. For the same cell line, the relative viability ([3]; first compound 0.8 µM) was 0.414, the relative viability ([3]; first compound 2.53 µM) was 0.407 and the relative viability ([3]; first compound 8 µM) was 0.42. It also gave a relative viability ([4]; first compound 0.08 µM) of 1.03, a relative viability ([4]; first compound 0.253 µM) of 0.992 and a relative viability ([4]; first compound 0.8 µM) of 0.732. It also gave a relative viability ([4]; first compound 2.53 µM) of 0.928 and a relative viability ([4]; first compound 8 µM) of 0.83.

LOU-NH91 was tested, and the relative viability ([1]; first compound 0.08 µM) was 0.618, the relative viability ([1]; first compound 0.253 µM) was 0.686 and the relative viability ([1]; first compound 0.8 µM) was 0.687. For the same cell line, the relative viability ([1]; first compound 2.53 µM) was 0.672, the relative viability ([1]; first compound 8 µM) was 0.747 and the relative viability ([2]; first compound 0.08 µM) was 0.536. For the same cell line, the relative viability ([2]; first compound 0.253 µM) was 0.582, the relative viability ([2]; first compound 0.8 µM) was 0.496 and the relative viability ([2]; first compound 2.53 µM) was 0.523. It also gave a relative viability ([2]; first compound 8 µM) of 0.553, a relative viability ([3]; first compound 0.08 µM) of 0.376 and a relative viability ([3]; first compound 0.253 µM) of 0.338. The relative viability ([3]; first compound 0.8 µM) was 0.378, the relative viability ([3]; first compound 2.53 µM) was 0.354 and the relative viability ([3]; first compound 8 µM) was 0.353. The relative viability ([4]; first compound 0.08 µM) was 0.75, the relative viability ([4]; first compound 0.253 µM) was 0.732 and the relative viability ([4]; first compound 0.8 µM) was 0.592. For the same cell line, the relative viability ([4]; first compound 2.53 µM) was 0.777 and the relative viability ([4]; first compound 8 µM) was 0.564.

For NCI-H1975, the relative viability ([1]; first compound 0.08 µM) was 1.2, the relative viability ([1]; first compound 0.253 µM) was 1.06 and the relative viability ([1]; first compound 0.8 µM) was 1.22. The relative viability ([1]; first compound 2.53 µM) was 1.08, the relative viability ([1]; first compound 8 µM) was 1.09 and the relative viability ([2]; first compound 0.08 µM) was 0.666. It also gave a relative viability ([2]; first compound 0.253 µM) of 0.521, a relative viability ([2]; first compound 0.8 µM) of 0.662 and a relative viability ([2]; first compound 2.53 µM) of 0.542. It also gave a relative viability ([2]; first compound 8 µM) of 0.559, a relative viability ([3]; first compound 0.08 µM) of 0.283 and a relative viability ([3]; first compound 0.253 µM) of 0.334. The relative viability ([3]; first compound 0.8 µM) was 0.329, the relative viability ([3]; first compound 2.53 µM) was 0.318 and the relative viability ([3]; first compound 8 µM) was 0.266. For the same cell line, the relative viability ([4]; first compound 0.08 µM) was 1, the relative viability ([4]; first compound 0.253 µM) was 1.11 and the relative viability ([4]; first compound 0.8 µM) was 0.899. The relative viability ([4]; first compound 2.53 µM) was 1.02 and the relative viability ([4]; first compound 8 µM) was 0.652.

For CAL-12T, the relative viability ([1]; first compound 0.08 µM) was 1.21, the relative viability ([1]; first compound 0.253 µM) was 0.965 and the relative viability ([1]; first compound 0.8 µM) was 1.33. The relative viability ([1]; first compound 2.53 µM) was 1.23, the relative viability ([1]; first compound 8 µM) was 1.24 and the relative viability ([2]; first compound 0.08 µM) was 0.45. The relative viability ([2]; first compound 0.253 µM) was 0.499, the relative viability ([2]; first compound 0.8 µM) was 0.569 and the relative viability ([2]; first compound 2.53 µM) was 0.454. The relative viability ([2]; first compound 8 µM) was 0.442, the relative viability ([3]; first compound 0.08 µM) was 1.15 and the relative viability ([3]; first compound 0.253 µM) was 1.18. The relative viability ([3]; first compound 0.8 µM) was 1.22, the relative viability ([3]; first compound 2.53 µM) was 0.993 and the relative viability ([3]; first compound 8 µM) was 0.802. For the same cell line, the relative viability ([4]; first compound 0.08 µM) was 1.21, the relative viability ([4]; first compound 0.253 µM) was 1.26 and the relative viability ([4]; first compound 0.8 µM) was 1.22. The relative viability ([4]; first compound 2.53 µM) was 1.05 and the relative viability ([4]; first compound 8 µM) was 1.1.

Work on NCI-H441 yielded a relative viability ([1]; first compound 0.08 µM) of 0.808, a relative viability ([1]; first compound 0.253 µM) of 0.734 and a relative viability ([1]; first compound 0.8 µM) of 0.722. The relative viability ([1]; first compound 2.53 µM) was 0.554, the relative viability ([1]; first compound 8 µM) was 0.689 and the relative viability ([2]; first compound 0.08 µM) was 0.203. For the same cell line, the relative viability ([2]; first compound 0.8 µM) was 0.196, the relative viability ([2]; first compound 2.53 µM) was 0.243 and the relative viability ([2]; first compound 8 µM) was 0.24. For the same cell line, the relative viability ([3]; first compound 0.08 µM) was 0.259, the relative viability ([3]; first compound 0.253 µM) was 0.252 and the relative viability ([3]; first compound 0.8 µM) was 0.273. The relative viability ([3]; first compound 2.53 µM) was 0.231, the relative viability ([3]; first compound 8 µM) was 0.261 and the relative viability ([4]; first compound 0.08 µM) was 0.858. The relative viability ([4]; first compound 0.253 µM) was 0.673, the relative viability ([4]; first compound 0.8 µM) was 0.38 and the relative viability ([4]; first compound 2.53 µM) was 0.768. For the same cell line, the relative viability ([4]; first compound 8 µM) was 0.563.

For NCI-H1944, the relative viability ([1]; first compound 0.08 µM) was 0.994, the relative viability ([1]; first compound 0.253 µM) was 1.05 and the relative viability ([1]; first compound 0.8 µM) was 1.04. For the same cell line, the relative viability ([1]; first compound 2.53 µM) was 1.02, the relative viability ([1]; first compound 8 µM) was 0.999 and the relative viability ([2]; first compound 0.08 µM) was 0.292. For the same cell line, the relative viability ([2]; first compound 0.253 µM) was 0.324, the relative viability ([2]; first compound 0.8 µM) was 0.326 and the relative viability ([2]; first compound 8 µM) was 0.379. For the same cell line, the relative viability ([3]; first compound 0.08 µM) was 0.671, the relative viability ([3]; first compound 0.253 µM) was 0.68 and the relative viability ([3]; first compound 0.8 µM) was 0.651. It also gave a relative viability ([3]; first compound 2.53 µM) of 0.65, a relative viability ([3]; first compound 8 µM) of 0.694 and a relative viability ([4]; first compound 0.08 µM) of 1.16. For the same cell line, the relative viability ([4]; first compound 0.253 µM) was 0.997, the relative viability ([4]; first compound 0.8 µM) was 0.92 and the relative viability ([4]; first compound 2.53 µM) was 1.1. The relative viability ([4]; first compound 8 µM) was 0.643.

With RERF-LC-KJ the relative viability ([1]; first compound 0.08 µM) was 0.997, the relative viability ([1]; first compound 0.253 µM) was 1.08 and the relative viability ([1]; first compound 0.8 µM) was 0.85. It also gave a relative viability ([1]; first compound 2.53 µM) of 0.756, a relative viability ([1]; first compound 8 µM) of 0.802 and a relative viability ([2]; first compound 0.08 µM) of 1.03. The relative viability ([2]; first compound 0.253 µM) was 1, the relative viability ([2]; first compound 0.8 µM) was 1.08 and the relative viability ([2]; first compound 2.53 µM) was 1.02. The relative viability ([2]; first compound 8 µM) was 1.14, the relative viability ([3]; first compound 0.08 µM) was 0.471 and the relative viability ([3]; first compound 0.253 µM) was 0.485. The relative viability ([3]; first compound 0.8 µM) was 0.505, the relative viability ([3]; first compound 2.53 µM) was 0.465 and the relative viability ([3]; first compound 8 µM) was 0.456. The relative viability ([4]; first compound 0.08 µM) was 0.94, the relative viability ([4]; first compound 0.253 µM) was 0.824 and the relative viability ([4]; first compound 0.8 µM) was 0.881. The relative viability ([4]; first compound 2.53 µM) was 0.671 and the relative viability ([4]; first compound 8 µM) was 0.651.

With NCI-H838 the relative viability ([1]; first compound 0.08 µM) was 1.1, the relative viability ([1]; first compound 0.253 µM) was 1.23 and the relative viability ([1]; first compound 0.8 µM) was 1.11. The relative viability ([1]; first compound 2.53 µM) was 1.21, the relative viability ([1]; first compound 8 µM) was 1.18 and the relative viability ([2]; first compound 0.08 µM) was 0.214. The relative viability ([2]; first compound 0.253 µM) was 0.225, the relative viability ([2]; first compound 0.8 µM) was 0.227 and the relative viability ([2]; first compound 2.53 µM) was 0.261. The relative viability ([2]; first compound 8 µM) was 0.273, the relative viability ([3]; first compound 0.08 µM) was 0.259 and the relative viability ([3]; first compound 0.253 µM) was 0.246. The relative viability ([3]; first compound 0.8 µM) was 0.266, the relative viability ([3]; first compound 2.53 µM) was 0.227 and the relative viability ([3]; first compound 8 µM) was 0.204. For the same cell line, the relative viability ([4]; first compound 0.08 µM) was 1.3, the relative viability ([4]; first compound 0.253 µM) was 1.11 and the relative viability ([4]; first compound 0.8 µM) was 1.02. It also gave a relative viability ([4]; first compound 2.53 µM) of 1.18 and a relative viability ([4]; first compound 8 µM) of 1.07.
